Results published in patent US20130245275A1, “PHENYL DIAMIDES AND A PHARMACEUTICAL PREPARATION COMPRISING PHENYL DIAMIDES” (Rheinische Friedrich-Wilhelms Universitaet Bonn, priority 2010, published 2013).
“Also recorded” adds a separate entry of the source.

Columns and labels:
[1] = target: T1, sec7-domain of cytohesin-2 (ARNO) (Homo sapiens, UniProt Q99418); assay: guanine nucleotide exchange assay (GDP/GTP exchange on [Δ17]ARF1, tryptophan fluorescence); assay type: biochemical; details: isolated Sec-7 domain, each experiment at least 8 times, read-out: IC50 values measured for the isolated Sec-7 domain of cytohesin-2
T1 construct: ARNO-Sec7 (amino acids 50-255 of ARNO) were expressed in Escherichia coli; made in house; host or cells: Escherichia coli
T1 sequence (Q99418 50-255): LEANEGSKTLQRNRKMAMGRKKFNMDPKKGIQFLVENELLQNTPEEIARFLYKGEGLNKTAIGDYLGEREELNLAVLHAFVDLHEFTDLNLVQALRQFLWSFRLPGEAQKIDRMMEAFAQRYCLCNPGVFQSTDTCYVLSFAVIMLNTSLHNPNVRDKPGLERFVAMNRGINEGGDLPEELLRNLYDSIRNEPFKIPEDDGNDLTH
Description: The inhibition of the exchange activity of the sec7-domain of cytohesin-2 (ARNO) of the phenyl diamides according to formulas (5) to (18) was determined by a guanine nucleotide exchange assay.
The sec7-domain of cytohesin-2 (ARNO) and [Δ17]ARF1, a mutant of the ADP-ribosylation factor (ARF) protein, were subcloned into pET15 vectors (Novagen) as described in Hafner, M. et al. Nature 444, 941-944 (2006). N-terminal truncated [Δ17]ARF1 (amino acids 18-181), lacking the first 17 amino acids and ARNO-Sec7 (amino acids 50-255 of ARNO) were expressed in Escherichia coli and purified by Ni-NTA chromatography (Ni-NTA agarose, Qiagen).
The exchange from […] (GDP) to […] (GTP) induces a conformation change of the ribosylation factor, as a result of which the fluorescence of a tryptophan radical of the protein is increased. GDP/GTP exchange was measured on [Δ17]ARF1 by tryptophan fluorescence because a large increase in intrinsic fluorescence of ARF occurs upon exchange of GDP for GTP. All measurements were performed in PBS (137 mM NaCl, 2.7 mM KCl, 10.2 mM Na2HPO4, 1.8 mM KH2PO4) pH 7.4, 3 mM MgCl2 at 37° C.
[Δ17]ARF1 (1 μM) in PBS without MgCl2 was preincubated with 80 μM GDP in the presence of 2 mM ethylenediaminetetraacetic acid (EDTA) for 15 minutes. The bound GDP was stabilized by addition of MgCl2 at a final concentration of 3 mM and incubation for 5 minutes. For each exchange reaction 250 nM [Δ17]ARF1 was mixed with 10 nM ARNO-Sec7 (total volume 200 μl) in the absence or presence of the phenyl diamides according to formulas (5) to (18). The reaction was started by injection of 50 μM GTP.
The tryptophan fluorescence was measured at excitation and emission wavelength of 280 nm and 340 nm respectively. All fluorescent measurements were performed with a Varioskan microplate reader (Thermo Scientific), in 96-well plates. For analysis all data were fitted by linear regression.
The relative exchange rate was determined by comparing the initial linear rise of the fluorescence signal (exchange rate) in the presence of 2.5 μM of the phenyl diamides according to formulas (5) to (18) with the exchange rate in the presence of the solvent Dimethyl sulfoxide (DMSO), 0.4% end concentration, only. A further control was performed with the control compound according to formula (XH1009) as indicated below: […]
Further, the IC50 value of the inhibition of the sec7-domain of the isolated cytohesin-2 was determined. The IC50 value was determined by plotting the initial linear rise of the fluorescence signal against the added concentrations of the amide. The IC50 value corresponds to the concentration of the phenyl diamides at which the activity of the protein is reduced to half. The lower the IC50 value, the more strongly the phenyl diamide inhibits the sec7-domain.

U87 wt = assay: glioblastoma proliferation assay (MTT), U87 wt; assay type: cell-based; details: Homo sapiens, U87WT; for inhibition at 0.25 µM: 250 nM, 72 h, vs DMSO control, read-out: inhibitory effect on cell proliferation as compared to control; for IC50: 72 hours, at least 3 times, read-out: IC50 values of the inhibition of the proliferation in the cell line U87 wt
Description: (§1) The effect of the phenyl diamides according to formulas (5) to (18) on the proliferation of Glioblastoma cells was tested in two pairs of established human glioblastoma cell lines, Gli36 and U87. Human Gli36 wt, U87 wt and U87 EGFRvIII cells were a gift from Prof. Dr. Andreas H. Jacobs, European Institute for Molecular Imaging, Munster, Germany. The cells were maintained in DMEM (PAA) supplemented with 10% fetal calf serum (FCS, Lonza), 1% Penicillin/Streptomycin (PAA) and 110 μg/ml Sodiumpyruvat (Sigma-Aldrich) and were grown at 37° C., 5% CO2.
(§2) 3000 cells per 96 well were seeded into a clear, flat bottom 96 well plate (TPP). After 24 hours the cells were washed twice in 1×DPBS (PAA) and treated with 250 nM of the phenyl diamides according to formulas (5) to (18) in DMEM (PAA) supplemented with 1% FCS (Lonza), 1% Penicillin/Streptomycin (PAA) and 110 μg/ml Sodiumpyruvat (Sigma-Aldrich). Controls were treated with Dimethyl sulfoxide (DMSO) as solvent in an end concentration of 0.4% (v/v). A further control was performed with the control compound according to formula (XH1009). Medium was changed daily.
(§3) After 72 hours cell proliferation was quantified by using a commercially available 3-(4,5-dimethylthiazol-2-yl)-2,5diphenyltetrazolium bromide (MTT) assay (Cell Titer 96® Non-Radioactive Cell Proliferation Assay, Promega) as described in the manufacture's protocol. Briefly, 15 μl of Dye solution was added directly into the 100 μl media of the cells. After 4 hours incubation at 37° C., 5% CO2, 100 μl solubilization solution was added to solubilize the formazan product and the absorbance at 570 nm was measured in a Varioscan microplate reader (Thermo Scientific). All assays were performed at least in triplicates. For calculation of the relative proliferation rate/cell number the mean absorbance in the solvent DMSO only treated cells was set as 1. Results are given as the mean+/−standard error.
(§4) The FIGS. 2 and 3 show the relative cell numbers in the wild type glioblastoma cell line U87 wt (FIG. 2) and Gli36 wt (FIG. 3) normalized to the DSMO treated control after 72 h incubation with the respective phenyl diamides according to formulas (5) to (18), the DSMO treated control compound determined with a MTT proliferation essay. Data were normalized with the exchange in the solvent (DMSO) only control set as 1 and represent the mean values of duplicates, error bars correspond to standard error of the mean (SEM).
(§5) U87 wt and U87 EGFRvIII cells were a gift from Prof. Dr. Andreas H. Jacobs, European Institute for Molecular Imaging, Münster, Germany. The cells were maintained in DMEM (PAA) supplemented with 1% FCS (Lonza), 1% Penicillin/Streptomycin (PAA) and 110 μg/ml Sodiumpyruvat (Sigma-Aldrich) and were grown at 37° C., 5% CO2.
as §2, with “300” for “3000”, “concentrations ranging from 2.5” for “250”, “nM to 2 μM” for “nM”, “(18) or 5 μM of the control compound (XH1009)” for “(18)”, “(v/v).” for “(v/v). A further control was performed with the control compound according to formula (XH1009).”
(§6) Further, the IC50 values of the inhibition of the proliferation was determined. The IC50 value was determined by plotting the relative cell number against the added concentrations of the amide. The IC50 value corresponds to the concentration of the phenyl diamides at which the proliferation is reduced to half. The lower the IC50 value, the more strongly the phenyl diamide inhibits proliferation.

Gli36 wt = assay: glioblastoma proliferation assay (MTT), Gli36 wt; assay type: cell-based; details: Homo sapiens, 250 nM, 72 h, vs DMSO control, read-out: inhibitory effect on cell proliferation as compared to control
Description: as §1, §2, §3, §4

U87 EGFRvIII = assay: glioblastoma proliferation assay (MTT), U87 EGFRvIII; selectivity of the inhibition; assay type: cell-based, human; details: for IC50: Homo sapiens, U87 EGFRvIII, 72 hours, MTT, at least 3 times, read-out: IC50 values of the inhibition of the proliferation in the cell line U87 EGFRvIII; for selectivity of the inhibition of the EGFRvIII dependent cell proliferation: U87 EGFRvIII compared with parental U87 wt
Description: as §5
as §2, with “300” for “3000”, “concentrations ranging from 2.5” for “250”, “nM to 2 μM” for “nM”, “(18) or 5 μM of the control compound (XH1009)” for “(18)”, “(v/v).” for “(v/v). A further control was performed with the control compound according to formula (XH1009).”
as §3, §6

glioblastoma cells = assay: glioblastoma cell proliferation, cell line not stated (summary statements); assay type: cell-based; details: read-out: IC50 for the proliferation inhibition

IC50 [1] | IC50 (U87 wt) | IC50 (U87 EGFRvIII) | IC50 (glioblastoma cells) | Structure (SMILES) | inhibition at 0.25 µM (U87 wt) | inhibition at 0.25 µM (Gli36 wt) | selectivity of the inhibition of the EGFRvIII dependent cell proliferation (U87 EGFRvIII) | inhibition of proliferation of EGFRvIII-cells relative to parental cell line (U87 EGFRvIII; U87 EGFRvIII vs parental U87 wt, FIG. 4B)
1180 nM | 168 nM | 46 nM | – | CC(C)(C)c1ccc(C(=O)Nc2ccc(NC(=O)c3ccccc3[N+](=O)[O-])cc2)cc1 [formula (5), N-{4-[(4-tert-butylbenzoyl)amino]phenyl}-2-nitrobenzamide] | 30 to 50% | 30 to 50% | – | –
790 nM | 243 nM | 67 nM | – | CC(C)(C)c1ccc(C(=O)Nc2ccc(NC(=O)c3cccc(Cl)c3)cc2)cc1 [formula (6), N-{4-[(4-tert-butylbenzoyl)amino]phenyl}-3-chlorobenzamide] | 30 to 50% | 30 to 50% | – | –
4570 nM | 1370 nM | 198 nM | – | CC(C)(C)c1ccc(C(=O)Nc2ccc(NC(=O)c3ccc(Br)o3)cc2)cc1 [formula (7)] | – | – | selectively inhibited the proliferation of the U87 EGFRvIII-containing cell line; also recorded: selectivity for the mutation EGFR variant III (EGFRvIII) | –
1190 nM | 118 nM | 148 nM | – | Cc1ccccc1C(=O)Nc1ccc(NC(=O)c2ccc(C(C)(C)C)cc2)cc1 [formula (8)] | > 50% | > 50% | – | –
2100 nM | 89 nM | 372 nM | – | CC(C)(C)c1ccc(C(=O)Nc2ccc(NC(=O)c3ccc(F)cc3)cc2)cc1 [formula (9)] | 30 to 50% | 30 to 50% | – | –
440 nM | 28 nM | 83 nM | – | CC(C)(C)c1ccc(C(=O)Nc2ccc(NC(=O)c3ccc([N+](=O)[O-])cc3)cc2)cc1 [formula (10)] | > 50% | > 50% | selectivety for the inhibition of the parental U87 wt cell line | –
2580 nM | 106 nM | 126 nM | – | CC(C)(C)c1ccc(C(=O)Nc2ccc(NC(=O)c3ccccc3Cl)cc2)cc1 [formula (11)] | > 50% | > 50% | – | –
1860 nM | 367 nM | 84 nM | – | Cc1ccc(C(=O)Nc2ccc(NC(=O)c3ccc(C(C)(C)C)cc3)cc2)c(C)c1 [formula (12)] | – | – | – | –
7270 nM | 2090 nM | 186 nM | – | CC(C)(C)c1ccc(C(=O)Nc2ccc(NC(=O)c3ccncc3)cc2)cc1 [formula (13)] | – | – | selectively inhibits the EGFRvIII expressing U87 cell line; also recorded: selectively inhibited the proliferation of the U87 EGFRvIII-containing cell line; also recorded: selectivity for the mutation EGFR variant III (EGFRvIII) | more than 10 fold
1760 nM | – | – | – | Cc1ccc(C(=O)Nc2ccc(NC(=O)c3ccc(C(C)(C)C)cc3)cc2)cc1 [formula (14)] | > 50% | > 50% | – | –
1770 nM | – | – | – | CC(C)(C)c1ccc(C(=O)Nc2ccc(NC(=O)c3ccccc3F)cc2)cc1 [formula (15)] | – | – | – | –
3750 nM | 958 nM | 435 nM | – | CC(C)(C)c1ccc(C(=O)Nc2ccc(NC(=O)/C=C/c3ccco3)cc2)cc1 [formula (16), 4-tert-butyl-N-[4-[[(E)-3-furan-2-ylprop-2-enoyl]amino]phenyl]-benzamide] | – | – | no selectivety | –
2690 nM | 922 nM | 224 nM | – | CC(C)(C)c1ccc(C(=O)Nc2ccc(NC(=O)c3ccc4c(c3)OCO4)cc2)cc1 [formula (17)] | – | – | selectively inhibited the proliferation of the U87 EGFRvIII-containing cell line; also recorded: selectivity for the mutation EGFR variant III (EGFRvIII) | –
1340 nM | 297 nM | 105 nM | < 2000 nM | CC(C)(C)c1ccc(C(=O)Nc2ccc(NC(=O)c3ccc4c(c3)OCCO4)cc2)cc1 [formula (18)] | – | – | – | –
